# Experimental data published in ChEMBL document CHEMBL5678796, “A highly potent and selective farnesyltransferase inhibitor ABT-100 in preclinical studies” (Anticancer Drugs, 2005).
# Experiments:
# [1] = Inhibition of FTase in H-Ras transformed mouse NIH3T3 cells using Ras as substrate assessed as inhibition of substrate prenylation in presence of 10% bovine serum by immunoblot analysis; type: cell-based
# HCT-116 [2] = experiment: Antitumor activity against human HCT-116 cells xenografted in nu/nu CD1 mouse assessed as tumor volume at 50 mg/kg, sc preinoculated with cells for 14 days followed by once daily compound administration for 21 days and measured on day 40 (reference value: 2973 +/- 593 mm^3); type: functional; settings: time 40 day
# HCT-116 [3] = experiment: Inhibition of VEGF secretion in human HCT-116 cells incubated for 72 hrs by ELISA; type: functional, cell-based; settings: dose 0.1-3 µmol/L
# [4] = AUC in rat at 25 mg/kg, po; type: ADME, organism-based; settings: in vivo
# [5] = Oral bioavailability in dog at 2.5 mg/kg; type: ADME, organism-based, Canis lupus familiaris; settings: in vivo
# Mus musculus [6] = experiment: Antiangiogenic activity in human recombinant VEGF-stimulated CF1 mouse corneal model assessed as inhibition of new blood growth area at 100 mg/kg, sc prestimulated with VEGF followed by compound administration and measured on day 7 by slit lamp biomicroscopic analysis relative to control; type: functional; settings: CF1, 168 h, time 7 day
# [7] = Clearance in dog at 2.5 mg/kg, iv; type: ADME, organism-based, Canis lupus familiaris; settings: in vivo
# [8] = Selectivity index, ratio of IC50 for inhibition of bovine GGTase 1 to IC50 for inhibition of recombinant human FTase
# [9] = Cmax in dog at 2.5 mg/kg, po; type: ADME, organism-based, Canis lupus familiaris; settings: in vivo
# [10] = Half-life in dog at 2.5 mg/kg, iv; type: ADME, organism-based, Canis lupus familiaris; settings: in vivo
# [11] = Inhibition of recombinant human FTase incubated for 30 mins in presence of [3H]FPP by SPA based Topcount scintillation plate reader analysis
# NIH3T3 [12] = experiment: Inhibition of VEGF secretion in mouse NIH3T3 cells incubated for 72 hrs ELISA; type: functional, cell-based; settings: dose 0.1-3 µmol/L
# HCT-116 [13] = experiment: Antitumor activity against human HCT-116 cells xenografted in nu/nu CD1 mouse assessed as tumor volume at 12.5 mg/kg, sc preinoculated with cells for 5 days followed by once daily compound administration for 21 days and measured on day 25 (reference value: 1569 +/- 165 mm^3); type: functional; settings: time 25 day
# [14] = Inhibition of FTase in human HCT-116 cells expressing low level of P-gp1 using Ras as substrate assessed as inhibition of substrate post-translation processing in presence of 10% FBS by immunoblot analysis; type: cell-based
# Mus musculus [15] = experiment: Antiangiogenic activity in human recombinant VEGF-stimulated CF1 mouse corneal model assessed as inhibition of new blood growth area at 25 mg/kg, sc prestimulated with VEGF followed by compound administration and measured on day 7 by slit lamp biomicroscopic analysis relative to control; type: functional; settings: CF1, 168 h, time 7 day
# [16] = AUC in dog at 2.5 mg/kg, po; type: ADME, organism-based, Canis lupus familiaris; settings: in vivo
# [17] = AUC in dog at 2.5 mg/kg, iv; type: ADME, organism-based, Canis lupus familiaris; settings: in vivo
# Mus musculus [18] = experiment: Antiangiogenic activity in human recombinant bFGF-stimulated CF1 mouse corneal model assessed as inhibition of new blood growth area at 100 mg/kg, sc prestimulated with bFGF followed by compound administration and measured on day 5 by slit lamp biomicroscopic analysis relative to control; type: functional; settings: CF1, 120 h, time 5 day
# Mus musculus [19] = experiment: Antiangiogenic activity in human recombinant bFGF-stimulated CF1 mouse corneal model assessed as inhibition of new blood growth area at 25 mg/kg, sc prestimulated with bFGF followed by compound administration and measured on day 5 by slit lamp biomicroscopic analysis relative to control; type: functional; settings: CF1, 120 h, time 5 day
# [20] = Volume of distribution in rat at 5 mg/kg, iv; type: ADME, organism-based; settings: in vivo
# [21] = Inhibition of FTase in human HCT-116 cells expressing low level of P-gp1 using Ras as substrate assessed as inhibition of substrate post-translation processing in presence of 20% human serum by immunoblot analysis; type: cell-based
# [22] = Cmax in rat at 25 mg/kg, po; type: ADME, organism-based; settings: in vivo
# [23] = Ratio of EC50 for inhibition of FTase in human HCT-116 cells expressing low level of P-gp1 using Ras as substrate assessed as inhibition of substrate post-translation processing in presence of 20% human serum to EC50 for inhibition of FTase in human HCT-116 cells expressing low level of P-gp1 using Ras as substrate assessed as inhibition of substrate post-translation processing in presence of 10% …; settings: condition cancer
# [24] = Oral bioavailability in rat at 5 mg/kg; type: ADME, organism-based; settings: in vivo
# HCT-116 [25] = experiment: Inhibition of VEGF mRNA expression in human HCT-116 cells incubated for 72 hrs by qRT-PCR analysis; type: functional, cell-based; settings: dose 1-30 µmol/L
# [26] = Inhibition of recombinant bovine FTase incubated for 30 mins in presence of [3H]FPP by SPA based Topcount scintillation plate reader analysis; parameters: species or system Bos taurus
# [27] = Inhibition of FTase in human HCT-15 cells expressing high level of P-gp1 using Ras as substrate assessed as inhibition of substrate post-translation processing in presence of 20% human serum by immunoblot analysis; type: cell-based
# HCT-116 [28] = experiment: Antitumor activity against human HCT-116 cells xenografted in nu/nu CD1 mouse assessed as increase in life span at 50 mg/kg, sc preinoculated with cells for 14 days followed by once daily compound administration for 21 days and measured on day 40 relative to vehicle in time to 1 cm^3 tumor; type: functional; settings: HCT-116, 960 h, time 40 day
# HCT-116 [29] = experiment: Antitumor activity against human HCT-116 cells xenografted in nu/nu CD1 mouse assessed as tumor volume at 25 mg/kg, sc preinoculated with cells for 5 days followed by once daily compound administration for 21 days and measured on day 25 (reference value: 1569 +/- 165 mm^3); type: functional; settings: time 25 day
# HCT-116 [30] = experiment: Antitumor activity against human HCT-116 cells xenografted in nu/nu CD1 mouse assessed as increase in life span at 50 mg/kg, sc preinoculated with cells for 5 days followed by once every 2 days compound administration for 11 times and measured on day 22 relative to vehicle in time to 1 cm3 tumor; type: functional; settings: HCT-116, 528 h, time 22 day
# NIH3T3 [31] = experiment: Inhibition of anchorage-independent growth in H-Ras transformed mouse NIH3T3 cells assessed as inhibition of colony formation incubated for 14 days in presence of 10% bovine serum by imaging based soft agar colony formation assay; type: functional, cell-based
# [32] = Volume of distribution in dog at 2.5 mg/kg, iv; type: ADME, organism-based, Canis lupus familiaris; settings: in vivo
# [33] = Oral bioavailability in rat at 25 mg/kg; type: ADME, organism-based; settings: in vivo
# Bos taurus = species: Bos taurus; experiment: Selectivity index, ratio of IC50 for inhibition of bovine GGTase 1 to IC50 for inhibition of recombinant bovine FTase
# HCT-116 [34] = experiment: Antitumor activity against human HCT-116 cells xenografted in nu/nu CD1 mouse assessed as increase in life span at 25 mg/kg, sc preinoculated with cells for 5 days followed by once daily compound administration for 21 days and measured on day 25 relative to vehicle in time to 1 cm^3 tumor; type: functional; settings: HCT-116, 600 h, time 25 day
# HCT-116 [35] = experiment: Antitumor activity against human HCT-116 cells xenografted in nu/nu CD1 mouse assessed as tumor volume at 6.25 mg/kg, sc preinoculated with cells for 5 days followed by once daily compound administration for 21 days and measured on day 25 (reference value: 1569 +/- 165 mm^3); type: functional; settings: time 25 day
# HCT-116 [36] = experiment: Antitumor activity against human HCT-116 cells xenografted in nu/nu CD1 mouse assessed as reduction in tumor volume by measuring test to control ratio at 50 mg/kg, sc preinoculated with cells for 14 days followed by once daily compound administration for 21 days and measured on day 40; type: functional; settings: time 40 day
smiles,measurement,setting,value
Cn1cncc1[C@](O)(COc1ccc(C#N)cc1-c1ccc(OC(F)(F)F)cc1)c1ccc(C#N)cc1 [ABT-100],EC50,[1],730 pM
same,Activity,HCT-116 [2],1530 mm3
same,inhibition,HCT-116 [3],Dose-Dependent Effect
same,AUC,[4],4620 ng·h/mL
same,bioavailability,[5],35.1%
same,inhibition in vivo at 100 mg/kg,Mus musculus [6],39%
same,clearance,[7],5.67 mL/min/kg
same,Ratio IC50,[8],> 100000
same,Cmax,[9],280 ng/mL
same,half-life,[10],6.8 h
same,IC50,[11],50 pM
same,inhibition,NIH3T3 [12],Dose-Dependent Effect
same,Activity,HCT-116 [13],721 mm3
same,EC50,[14],430 pM
same,inhibition in vivo at 25 mg/kg,Mus musculus [15],8%
same,AUC,[16],2840 ng·h/mL
same,AUC,[17],7700 ng·h/mL
same,inhibition in vivo at 100 mg/kg,Mus musculus [18],49%
same,inhibition in vivo at 25 mg/kg,Mus musculus [19],32%
same,Vd,[20],5.6 L/kg
same,EC50,[21],1700 pM
same,Cmax,[22],740 ng/mL
same,Ratio EC50,[23],1.5
same,bioavailability,[24],15.1%
same,inhibition,HCT-116 [25],Dose-Dependent Effect
same,IC50,[26],130 pM
same,EC50,[27],1100 pM
same,ILS at 50 mg/kg,HCT-116 [28],52%
same,Activity,HCT-116 [29],553 mm3
same,ILS at 50 mg/kg,HCT-116 [30],32%
same,EC50,"NIH3T3 [31]; NIH3T3, 336 h",900 pM
same,inhibition,NIH3T3 [31]; time 14.0 day,Dose-Dependent Effect
same,Vd,[32],3.3 L/kg
same,bioavailability,[33],30.7%
same,Ratio IC50,Bos taurus,> 100000
same,ILS at 25 mg/kg,HCT-116 [34],100%
same,Activity,HCT-116 [35],899 mm3
same,T/C,HCT-116 [36],45%
